# According to publication PMC5003509 (Journal of Medicinal Chemistry, 2015):
# Experiments:
# [1] = In vivo pharmacokinetics in CD1 mice; details: male, CD1, mouse, plasma, iv, 10 mg/kg
# [2] = Metabolic stability in mouse liver microsomes, glucuronidation; assay type: in vitro ADME; details: in the presence of UDPGA
# [3] = Metabolic stability in mouse liver microsomes, CYP-mediated; assay type: in vitro ADME; details: cofactor for CYP-dependent oxidation
# NMDA receptor (agonist) = assay: NMDA receptor; assay type: binding; details: at 10 μM
# [4] = test system: glycine receptor (strychnine sensitive); assay: Glycine receptor; assay type: binding; details: at 10 μM
# hERG channel = hERG channel (Homo sapiens, UniProt Q12809); assay: hERG channel assay; details: concentrations up to 25 μM
# hERG channel, sequence (Q12809 whole entry): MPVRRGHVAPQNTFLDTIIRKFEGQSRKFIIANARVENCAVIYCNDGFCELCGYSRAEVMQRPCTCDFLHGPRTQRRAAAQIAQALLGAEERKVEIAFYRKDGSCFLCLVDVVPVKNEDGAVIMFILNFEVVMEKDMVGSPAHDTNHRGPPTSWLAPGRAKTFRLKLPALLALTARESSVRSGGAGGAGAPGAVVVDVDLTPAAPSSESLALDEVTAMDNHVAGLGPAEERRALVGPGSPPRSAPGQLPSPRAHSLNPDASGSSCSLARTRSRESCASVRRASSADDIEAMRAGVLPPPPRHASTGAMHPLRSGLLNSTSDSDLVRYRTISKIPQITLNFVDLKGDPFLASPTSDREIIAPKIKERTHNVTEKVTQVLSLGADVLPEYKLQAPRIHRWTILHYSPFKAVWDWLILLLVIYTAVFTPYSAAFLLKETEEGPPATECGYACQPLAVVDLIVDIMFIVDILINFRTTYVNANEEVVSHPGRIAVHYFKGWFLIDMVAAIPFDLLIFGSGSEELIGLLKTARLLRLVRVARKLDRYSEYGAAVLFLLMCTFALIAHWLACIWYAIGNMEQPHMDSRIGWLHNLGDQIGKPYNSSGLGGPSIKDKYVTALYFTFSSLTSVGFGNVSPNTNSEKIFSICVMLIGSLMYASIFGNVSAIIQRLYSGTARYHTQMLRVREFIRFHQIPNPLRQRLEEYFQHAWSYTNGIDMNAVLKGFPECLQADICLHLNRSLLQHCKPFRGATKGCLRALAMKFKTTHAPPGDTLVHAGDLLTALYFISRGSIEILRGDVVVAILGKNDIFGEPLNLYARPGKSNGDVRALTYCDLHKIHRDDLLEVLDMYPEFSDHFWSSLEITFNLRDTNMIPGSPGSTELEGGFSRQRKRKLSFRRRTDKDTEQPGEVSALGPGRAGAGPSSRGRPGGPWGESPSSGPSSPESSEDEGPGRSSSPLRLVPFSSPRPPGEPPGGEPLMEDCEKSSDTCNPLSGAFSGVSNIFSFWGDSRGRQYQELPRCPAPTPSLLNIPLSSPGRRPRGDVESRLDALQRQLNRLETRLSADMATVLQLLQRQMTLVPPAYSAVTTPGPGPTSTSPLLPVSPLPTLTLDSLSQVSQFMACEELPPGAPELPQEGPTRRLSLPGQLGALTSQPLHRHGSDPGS
# [5] = Effect on plasma pharmacokinetics of oral D-serine in mice; details: 11h (30 mg/kg, po) with D-serine (30 mg/kg, po)
# recombinant human DAAO = recombinant human DAAO (Homo sapiens, UniProt P14920); assay: In vitro DAAO assay; assay type: biochemical
# recombinant human DAAO, sequence (P14920 whole entry): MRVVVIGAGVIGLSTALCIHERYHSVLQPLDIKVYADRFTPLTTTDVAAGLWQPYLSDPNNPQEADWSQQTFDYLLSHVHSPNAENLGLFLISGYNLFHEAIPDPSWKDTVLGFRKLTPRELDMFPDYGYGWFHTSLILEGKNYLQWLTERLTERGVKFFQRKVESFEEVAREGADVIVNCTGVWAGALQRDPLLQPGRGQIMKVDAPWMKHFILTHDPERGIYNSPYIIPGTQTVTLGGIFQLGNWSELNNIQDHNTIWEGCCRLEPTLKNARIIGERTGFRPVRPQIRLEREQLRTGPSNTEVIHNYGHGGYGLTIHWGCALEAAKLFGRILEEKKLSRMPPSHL
# [6] = test system: NMDA receptor (phencyclidine); assay: NMDA receptor; assay type: binding; details: at 10 μM
# NMDA receptor (MK801) = assay: NMDA receptor; assay type: binding; details: at 10 μM
# [7] = test system: Salmonella typhimurium strain (TA100); assay: Ames test; assay type: cell-based; details: TA100, in the presence or absence of metabolic activation by S9 mixture
compound,measurement,setting,value
"O=c1[nH]nc(CCc2cc(F)cc(F)c2)cc1O [8b, reference compound]",AUC(0-t),[1],12700 ng·h/mL
same,glucuronidation in mouse liver microsomes,[2],some resistance to glucuronidation
"O=c1[nH]c(=O)n(CCc2ccccc2)nc1O [11e, 6-Hydroxy-2-phenethyl-1,2,4-triazine-3,5(2H,4H)-dione]",stability in mouse liver microsomes in the presence of NADPH,[3],stable
same,glucuronidation in mouse liver microsomes,[2],completely resistant to glucuronidation
"O=c1[nH]c(=O)n(Cc2cccc3ccccc23)nc1O [11h, 6-Hydroxy-2-(naphthalen-1-ylmethyl)-1,2,4-triazine-3,5(2H,4H)-dione]","inhibition, NMDA receptor (agonist)",NMDA receptor (agonist),≤5% inhibition at 10 μM
same,"inhibition, glycine receptor (strychnine sensitive)",[4],≤5% inhibition at 10 μM
same,stability in mouse liver microsomes in the presence of NADPH,[3],stable
same,hERG channel inhibition,hERG channel,no inhibition at concentrations up to 25 μM
same,effect on plasma clearance of D-serine,[5],substantially reduced
same,glucuronidation in mouse liver microsomes,[2],completely resistant to glucuronidation
same,effect of FAD concentration on IC50,recombinant human DAAO; escalation of FAD concentration from 10 to 100 μM,did not affect IC50 value
same,mode of inhibition,"recombinant human DAAO; versus D-serine, double reciprocal plot",competitive inhibition
same,"inhibition, NMDA receptor (phencyclidine)",[6],≤5% inhibition at 10 μM
same,"inhibition, NMDA receptor (MK801)",NMDA receptor (MK801),≤5% inhibition at 10 μM
same,mutagenicity,[7],No evidence of mutagenicity
"O=c1cc(CSc2ccc(Cl)c(Cl)c2)occ1O [compound 7, reference compound]",glucuronidation in mouse liver microsomes,[2],extensively glucuronidated
"O=c1[nH]c(=S)n(CCc2ccccc2)nc1O [compound 30, 6-Hydroxy-2-phenethyl-3-thioxo-3,4-dihydro-1,2,4-triazin-5(2H)-one]",glucuronidation in mouse liver microsomes,[2],metabolically stable against glucuronidation
"O=c1[nH]c(=O)n(CCc2ccccc2)cc1O [compound 32, 5-Hydroxy-1-phenethylpyrimidine-2,4(1H,3H)-dione]",glucuronidation in mouse liver microsomes,[2],fully glucuronidated within 60 min
